Data as given in EPA's ToxValDB 9.5 (doi:10.2903/j.efsa.2010.1719).
≈ marks a conversion by molar mass, not a printed value. Where “and” joins values, the source holds several entries; their conditions need not be identical. Equal values may be shown once.

Legend:
[1] = tested on: Anas platyrhynchos
[2] = tested on: Tagia sp.
[3] = tested on: Mus musculus; settings: acute; oral; M; mortality
[4] = tested on: Apis mellifera; settings: acute; duration: 48 hours; dermal; mortality
[5] = tested on: Canidae; settings: chronic; duration: 1 years; oral; Dog Other; histopathology: nonneoplastic
[6] = tested on: Daphnia magna; settings: chronic/long-term; duration: 21 days; reproduction
[7] = tested on: Rattus norvegicus
[8] = tested on: Colinus virginianus; settings: for LD50: acute, oral, mortality
[9] = tested on: Folsomia candida; settings: chronic/long-term; duration: 28 days
[10] = tested on: Danio rerio; settings: mortality
[11] = tested on: Bibionidae; settings: chronic/long-term; duration: 28 days

CCCN(CC)CC1COC2(CCC(C(C)(C)C)CC2)O1 (stereo not drawn) [Spiroxamine]
NOEL ([1]; reproductive): 10.6 mg/kg-day
LD50 ([1]; short-term, oral, feed, mortality): 874 mg/kg-day
LC50 ([2]; acute, duration: 14 days, mortality): > 1000 mg/kg
NOEC ([2]; chronic/long-term, duration: 56 days): > 3750 mg/kg
LD50 [3]: 460 mg/kg-day
LD50 [4]: > 4.2 µg/piece
NOAEL [5]: 2.5 mg/kg-day
NOEC [6]: 0.034 mg/L
NOAEL ([7]; acute, neurology): 10 mg/kg-day
LD50 ([7]; acute, oral, F, mortality): < 560 mg/kg-day
NOEL ([7]; chronic): 9.19 mg/kg-day and 22.2 mg/kg-day
LD50 ([8]; diet): > 358 mg/kg-day
LD50 [8]: 565 mg/kg-day
NOEL ([8]; reproduction developmental): 2.02 mg/kg-day
NOEC [9]: 32 mg/kg
LC50 ([10]; acute, duration: 96 hours): 2.41 mg/L (≈ 8.1 µM)
NOEC ([10]; chronic, duration: 230 days): 0.002 mg/L
NOEC [11]: 5.6 mg/L
